Laboratory results reported in patent publication US12568982B2, “Systems for retaining potency in an infused beverage” (Vertosa Inc., priority 2020, dated 2026).

How the values were obtained:
Assay type in all cases: physicochemical
[1] = Terpene oxidation with ascorbic acid or EDTA at 40° C.
Text: However, nearly all terpenes can be oxidized and some can oxidize faster than others. When terpenes are put into a ready-to-drink beverage, the chemical degradation that can be caused by oxidation needs to be considered. When the oxidation happens, it not only diminishes the designed effect of the product, but it also creates unknown by-products that can be potentially harmful to consume. Oxidation rate of α-pinene and limonene was compared with the addition of ascorbic acid and EDTA.

[2] = Water-soluble antioxidant standard protocol, THC potency decay at 40° C.; settings: for THC potency loss at 10 weeks with combined antioxidants: Polysorbate Emulsion 1
Procedure: The study was done with standard protocol: 20 mg THC nanoemulsion was diluted in 12 oz purified water into an amber glass bottle which was finished with a crown cap. The nanoemulsion was produced using polysorbate as an emulsifier with 50 nm droplet size (See Emulsion 1 from Table 3). The pH of the solution was adjusted to 4.0. The water-soluble antioxidants were added into the final solution at 0.005% (50 ppm).
All the testing above was based on the THC nanoemulsion made with polysorbate as an emulsifier (see Emulsion 1 from Table 3). Two other THC emulsions were produced with polyglycerol and Q-Naturale (see Emulsion 3 and 4 from […]).
The three oil soluble antioxidants were all targeted at 0.01% (100 ppm).

[3] = THC potency loss in glass bottle with child-resistant cap at room temperature
Text: The concentration of the antioxidant was studied to ensure the antioxidant will last long enough to protect against THC degradation.

[4] = Contact angle of liquids on aluminum can liner (hydrophobicity study); settings: Krüss contact angle machine; flattened liner side of aluminum can
Procedure: For hydrophobicity studies, a Krüss contact angle machine was used. An aluminum can was cut in half, and the flattened liner side was used as the testing surface. The contact angle of water, coconut oil, coconut oil+THC at different ratios, and coconut oil+CBD at different ratios on the liner was measured.

[5] = Oil-phased versus water-phased antioxidants, THC potency loss at 40° C.; settings: polysorbate emulsion, antioxidant 0.01%, glass bottle with crown cap
Text: There are two major types of antioxidants depending on their solubility: oil-phased antioxidants and water-phased antioxidants. The oil-phased antioxidants usually exist within the emulsion droplet and water-phased antioxidants are usually added during beverage production. It was believed that both types of antioxidants should work since they follow similar mechanisms: both function as a sacrificial agent to be oxidized prior to oxidation of the API, or they function as chelating agents where they scavenge the metal ions that catalyze oxidation. […] An emulsion was produced using polysorbate, shown as Emulsion 1 in Table 3. The antioxidant concentration was targeted at 0.01%.

[6] = 20 mg THC polysorbate nanoemulsion in 12 oz water, pH 4.0, amber glass, 40° C., antioxidant 0.005% (50 ppm)
[7] = oil-soluble antioxidant at 100 ppm + 10 ppm EDTA
[8] = oil-soluble antioxidant at 100 ppm + 50 ppm Ascorbic Acid

## C=CC(=C)CCC=C(C)C [myrcene]
[1]; 10 ppm EDTA
  2-weeks potency loss at 40° C.: 6%
[1]; 50 ppm ascorbic acid
  2-weeks potency loss at 40° C.: 3%
[1]; No antioxidant
  2-weeks potency loss at 40° C.: 38%

## O=C(O)c1cc(O)c(O)c(O)c1 [Gallic acid]
[2]; [6]
  THC loss at 4 weeks: 10%
  THC loss at 10 weeks: 27%

## CCCCCc1cc(O)c2c(c1)OC(C)(C)[C@@H]1CCC(C)=C[C@@H]21 [THC, Tetrahydrocannabinol]
[3]; No antioxidant, 6 months at room temperature, child resistant cap type 1
  THC potency loss %: 56%
[3]; No antioxidant, 12 months at room temperature, child resistant cap type 1
  THC potency loss %: 78%

## C=C(C)[C@H]1CC=C(C)CC1 [limonene]
[1]; 10 ppm EDTA
  2-weeks potency loss at 40° C.: 8%
[1]; 50 ppm ascorbic acid
  2-weeks potency loss at 40° C.: 7%
[1]; No antioxidant
  2-weeks potency loss at 40° C.: 68%

## CC1=CCC2CC1C2(C)C (stereo not drawn) [α-pinene]
[1]; 10 ppm EDTA
  2-weeks potency loss at 40° C.: 6%
[1]; 50 ppm ascorbic acid
  2-weeks potency loss at 40° C.: 4%
[1]; No antioxidant
  2-weeks potency loss at 40° C.: 57%

## C=CC(C)(O)CCC=C(C)C (stereo not drawn) [linalool]
[1]; 10 ppm EDTA
  2-weeks potency loss at 40° C.: 9%
[1]; 50 ppm ascorbic acid
  2-weeks potency loss at 40° C.: 6%
[1]; No antioxidant
  2-weeks potency loss at 40° C.: 46%

## CCCOC(=O)c1cc(O)c(O)c(O)c1 [Propyl Gallate, propyl gallate]
[2]; [7]
  THC potency loss at 10 weeks with combined antioxidants: 6%
[2]; [8]
  THC potency loss at 10 weeks with combined antioxidants: 7%

## O [Water]
[4]
  Contact Angle on Liner: 85°

## O=C1O[C@H]([C@@H](O)CO)C(O)=C1O [Ascorbic Acid, ascorbic acid]
[3]; Ascorbic acid 20 ppm, 6 months at room temperature
  THC potency loss %: 21%
[3]; Ascorbic acid 20 ppm, 12 months at room temperature
  THC potency loss %: 35%
[3]; Ascorbic acid 50 ppm, 6 months at room temperature
  THC potency loss %: 7%
[3]; Ascorbic acid 50 ppm, 12 months at room temperature
  THC potency loss %: 10%
[3]; Ascorbic acid 200 ppm, 6 months at room temperature
  THC potency loss %: 3%
[3]; Ascorbic acid 200 ppm, 12 months at room temperature
  THC potency loss %: 7%
[5]
  THC loss at 10 weeks: 17%

## O=C(O)CN(CCN(CC(=O)O)CC(=O)O)CC(=O)O [EDTA, Ethylenediaminetetraacetic acid]
[3]; EDTA 5 ppm, 6 months at room temperature
  THC potency loss %: 16%
[3]; EDTA 5 ppm, 12 months at room temperature
  THC potency loss %: 39%
[3]; EDTA 10 ppm, 6 months at room temperature
  THC potency loss %: 8%
[3]; EDTA 10 ppm, 12 months at room temperature
  THC potency loss %: 12%
[3]; EDTA 20 ppm, 6 months at room temperature
  THC potency loss %: 6%
[3]; EDTA 20 ppm, 12 months at room temperature
  THC potency loss %: 9%

## tocopherol [Vitamin E (tocopherol)]
[5]
  THC loss at 4 weeks: 25%
  THC loss at 10 weeks: 46%
[2]; [7]
  THC potency loss at 10 weeks with combined antioxidants: 7%
[2]; [8]
  THC potency loss at 10 weeks with combined antioxidants: 6%
